The values below come from publication PMC12735921, “Evaluation of Antiproliferative Activity and Molecular Modeling Studies of Some Novel Benzimidazolone-Bridged Hybrid Compounds” (Pharmaceuticals, 2025).

Test [1] has as its system A549 cells. Briefly: LDH leakage assay, A549. The class given is cell-based, human. The settings on record: A549, IC50 concentration of compound, 48 h; H2O2 positive control; mean ± SD, n = 3. The protocol:
(§1) One hundred microliters of culture medium was transferred to a new 96-well plate. One hundred microliters of LDH reaction solution was added to each well, and absorbance was measured at 490 nm using an ELISA plate reader (BMG Labtech, Ortenberg, Germany) after 30 min.

In test [2] the test system is MCF-7 cells. Briefly: MTT cell viability assay, MCF-7. The settings on record: for IC50: Homo sapiens, MCF7, MTT, 48 h, mean ± SD, n = 3; for MCF-7 Selectivity Index (SI): SI = IC50 (HEK 293)/IC50 (MCF-7). The class given is cell-based, human. The protocol: (§2) Cell viability assay was performed on the human lung cancer (A549) (ATCC CCL-185), human breast cancer (MCF-7) (ATCC-HTB-22), cervical cancer (HeLa) (ATCC-CCL-2), and human embryonic kidney 293 (HEK293) (ATCC-CRL-1573) cell lines, which were purchased from Deutsche Sammlung von Mikroorganismen und Zellkulturen (DSMZ, Braunschweig, Germany). The cells were maintained in Dulbecco’s modified Eagle’s medium (DMEM), supplemented with 10% fetal bovine serum (FBS), 2 mM L-glutamine, 100 U/mL penicillin, and 100 mg/L streptomycin (Biochrom AG, Berlin, Germany) at 37 °C in a humidified atmosphere of 5% CO2.
(§3) The cytotoxic effect was determined by the MTT (3-(4,5-dimethyl-2-thiazolyl)-2,5-diphenyl-2H-tetrazolium bromide) cell viability assay. Cells were seeded at an initial concentration of 1 × 10^5 cells/mL in 96-well microplates. Cells were then treated with different concentrations (0.5, 5, 10, 25, 50, 100 and 200 µM) of the novel synthesized compounds for 48 h. After the incubation period, the formed formazan crystals were dissolved in dimethyl sulfoxide (DMSO), and the optical density (OD) of the compounds was measured at 570 nm using a spectrophotometer (BMG Labtech, Ortenberg, Germany). Cytotoxicity was expressed as an increase in the mean percentage of cytotoxicity relative to the unexposed control ± standard deviation (SD). […] Control values were set at 0% cytotoxicity. IC50 was calculated by fitting the data to a sigmoidal curve using a four-parameter logistic model and was presented as an average of three independent measurements. […] Doxorubicin was used as a positive control. Each sample was tested in triplicate.
(§4) To evaluate the selectivity of the tested compound(s) toward cancer cells over normal cells, the Selectivity Index (SI) was calculated using the following formula:SI = IC50 (normal cells)/IC50 (cancer cells)
(§5) An SI value greater than 2 was considered to indicate selective cytotoxicity, while values below 2 were interpreted as non-selective. Higher SI values reflect greater therapeutic potential due to reduced toxicity toward normal cells.
(In general: Tetrazolium assays rely on reduction of a dye to a coloured formazan, in cell work by metabolically active cells.)

Test [3] concerns HeLa cells. Briefly: MTT cell viability assay, HeLa. The class given is cell-based, human. The settings on record: for IC50: Homo sapiens, HeLa, MTT, 48 h, mean ± SD, n = 3; for HeLa Selectivity Index (SI): SI = IC50 (HEK 293)/IC50 (HeLa). The protocol:
as §2, §3, §4, §5

Test [4] relates to A549 cells. Briefly: Cell cycle analysis (PI staining, flow cytometry), A549. Type of test: cell-based, human. Particulars: A549, IC50 concentration, 48 h, mean ± SEM, n = 3. The protocol:
(§6) Cell cycle distribution was assessed by propidium iodide (PI) staining and flow cytometry. HeLa, MCF-7, and A549 cells were seeded in 6-well plates at a density of 1 × 10^5 cells per well and allowed to attach overnight. […] Following exposure, both adherent and floating cells were collected, washed twice with cold phosphate-buffered saline (PBS, pH 7.4), and fixed overnight in 70% cold ethanol at 4 °C. After fixation, the cells were centrifuged and resuspended in 500 µL of PI/RNase staining solution containing 50 µg/mL PI and 100 µg/mL RNase A (Sigma-Aldrich®, St. Louis, MO, USA), followed by incubation in the dark for 30 min at 37 °C. The stained samples were analyzed using a Muse™ Cell Analyzer (Merck, Millipore, Germany) equipped with a 488 nm excitation laser and a 617 nm emission filter. A minimum of 10,000 events per sample were acquired after exclusion of debris and doublets via FSC-A vs. FSC-H gating. The DNA content histograms were generated automatically, and cell populations were expressed as percentages of G0/G1, S, and G2/M phases using the Muse™ Cell Cycle Analysis Software 1.5.0.0. All assays were conducted in triplicate biological repeats (n = 3), and results were reported as mean ± SEM.
For orientation: Flow cytometry measures light scatter and fluorescence of single cells or particles in a stream.

Test [5] deals with MCF-7 cells. In words: Intracellular GSH/GSSG ratio, MCF-7. Type of test: cell-based, human. Particulars: MCF-7, IC50 concentration of compound, 48 h; H2O2 positive control; mean ± SD, n = 3. The protocol:
(§7) Intracellular reduced (GSH) and oxidized (GSSG) glutathione levels were measured using the GSH/GSSG Ratio Detection Assay Kit (Cayman Chemical, Ann Arbor, MI, USA, Cat. No: 703002) according to the manufacturer’s protocol. […] After treatment, cells were washed with cold PBS and lysed with MES buffer provided in the kit.
(§8) To prevent oxidation of GSH to GSSG during processing, samples were deproteinized using the supplied metaphosphoric acid solution and neutralized accordingly. Total glutathione and GSSG levels were measured separately by adding the appropriate buffers and reagents to the wells of a 96-well plate, followed by the addition of DTNB recycling reagent and glutathione reductase. Absorbance was read at 405 nm using a microplate reader (BMG Labtech, Germany). The amount of GSH was calculated by subtracting 2 × GSSG from the total glutathione, and the GSH/GSSG ratio was used to assess intracellular redox status.

Test [6] deals with A549 cells. Briefly: Intracellular GSH/GSSG ratio, A549. Particulars: A549, IC50 concentration of compound, 48 h; H2O2 positive control; mean ± SD, n = 3. Type of test: cell-based, human. The protocol:
as §7, §8

Test [7] relates to MCF-7 cells. Briefly: Cell cycle analysis (PI staining, flow cytometry), MCF-7. The class given is cell-based, human. Particulars: MCF-7, IC50 concentration, 48 h, mean ± SEM, n = 3. How it is done:
as §6

The subject of test [8] is MCF-7 cells. Briefly: Total oxidative status (TOS), MCF-7. The class given is cell-based, human. Particulars: MCF-7, IC50 concentration of compound, 48 h; H2O2 250 µM positive control; mean ± SD, n = 3. The protocol: (§9) TOS were evaluated using a commercially available kit (Rel Assay Diagnostics®, Gaziantep, Turkey) according to the manufacturer’s instructions. […] The TOS assay quantifies oxidizing agents based on their ability to convert an iron (II) ion chelator complex to iron (III) ions. The results were calibrated against hydrogen peroxide (H2O2, 250 µM) as a positive control for 48 h and expressed as µmol H2O2 equivalents per liter. The analysis was performed in three independent biological replicates (n = 3).

For test [9], the system named is HEK 293 cells. In words: MTT cell viability assay, non-cancerous HEK 293. The class given is cell-based, human. Particulars: Homo sapiens, HEK293, 48 h, mean ± SD, n = 3. How it is done:
as §2
The cytotoxic effect was determined by the MTT (3-(4,5-dimethyl-2-thiazolyl)-2,5-diphenyl-2H-tetrazolium bromide) cell viability assay. Cells were seeded at an initial concentration of 1 × 10^5 cells/mL in 96-well microplates. Cells were then treated with different concentrations (0.5, 5, 10, 25, 50, 100 and 200 µM) of the novel synthesized compounds for 48 h. After the incubation period, the formed formazan crystals were dissolved in dimethyl sulfoxide (DMSO), and the optical density (OD) of the compounds was measured at 570 nm using a spectrophotometer (BMG Labtech, Ortenberg, Germany). Cytotoxicity was expressed as an increase in the mean percentage of cytotoxicity relative to the unexposed control ± standard deviation (SD). […] Control values were set at 0% cytotoxicity. IC50 was calculated by fitting the data to a sigmoidal curve using a four-parameter logistic model and was presented as an average of three independent measurements. […] Each sample was tested in triplicate.

Test [10] has as its system MCF-7 cells. Briefly: LDH leakage assay, MCF-7. The settings on record: MCF-7, IC50 concentration of compound, 48 h; H2O2 positive control; mean ± SD, n = 3. Type of test: cell-based, human. The protocol: as §1
In test [11] the test system is A549 cells. In words: Total oxidative status (TOS), A549. The class given is cell-based, human. The settings on record: A549, IC50 concentration of compound, 48 h; H2O2 250 µM positive control; mean ± SD, n = 3. How it is done: as §9
Test [12] deals with A549 cells. In words: MTT cell viability assay, A549. Type of test: cell-based, human. The settings on record: for IC50: Homo sapiens, A549, MTT, 48 h, mean ± SD, n = 3; for A549 Selectivity Index (SI): SI = IC50 (HEK 293)/IC50 (A549). The protocol: as §2, §3, §4, §5
The subject of test [13] is A549, MCF-7, and HeLa cells. In words: MTT cell viability assay, ranges stated across the cancer cell lines. The class given is cell-based. Particulars: Homo sapiens, range over the three cancer cell lines, 48 h. How it is done:
as §2
The cytotoxic effect was determined by the MTT (3-(4,5-dimethyl-2-thiazolyl)-2,5-diphenyl-2H-tetrazolium bromide) cell viability assay. Cells were seeded at an initial concentration of 1 × 10^5 cells/mL in 96-well microplates. […] After the incubation period, the formed formazan crystals were dissolved in dimethyl sulfoxide (DMSO), and the optical density (OD) of the compounds was measured at 570 nm using a spectrophotometer (BMG Labtech, Ortenberg, Germany). Cytotoxicity was expressed as an increase in the mean percentage of cytotoxicity relative to the unexposed control ± standard deviation (SD). […] IC50 was calculated by fitting the data to a sigmoidal curve using a four-parameter logistic model and was presented as an average of three independent measurements. […]

In test [14] the test system is HeLa cells. In words: LDH leakage assay, HeLa. The class given is cell-based, human. Particulars: IC50 concentration of compound, 48 h, H2O2 positive control, mean ± SD, n = 3. The protocol:
as §1
On the technique in general: Release of lactate dehydrogenase indicates damage to the cell membrane.

Test [15] concerns HeLa cells. Briefly: Total oxidative status (TOS), HeLa. The settings on record: IC50 concentration of compound, 48 h, H2O2 250 µM positive control, mean ± SD, n = 3. Type of test: cell-based, human. The protocol:
as §9

A word on the IC50: it is the concentration that gives 50% inhibition. A low value points to inhibition by little substance.

Values joined by “and” are separate entries in the source; they are usually repeats but may differ in a detail not shown here. Equal values may be shown once. Marks after values point to notes of the source that are not given here.

On to `O=C(Cn1c(=O)n(CC(=O)NNC(=O)c2cc3cc(Br)ccc3oc2=O)c2cc(Cl)c(Cl)cc21)NNC(=O)c1cc2cc(Br)ccc2oc1=O` [Compound 12c, N′,N′′′ -(2,2′-(5,6-dichloro-2-oxo-1H-benzo[d]imidazole-1,3(2H)-diyl)bis(acetyl))bis(6-bromo-2-oxo-2H-chromene-3-carbohydrazide)], for which the LDH in test [1] was 30.4 ± 2.6 µU/mL and 30.4 ± 2.6 ^a,b µU/mL; in test [10] it was 28.8 ± 2.2 µU/mL and 28.8 ± 2.2 ^a,b µU/mL. Besides, the IC50 in test [2] was 9.7 ± 0.56 µM; in test [3], 11.5 ± 0.66 µM; in [9], 21.5 ± 1.24 µM; in test [12] it was 10.2 ± 0.58 µM. In addition, the “MCF-7 Selectivity Index (SI)” value in [2] was 2.21. For the same molecule, the “HeLa Selectivity Index (SI)” value in [3] came out at 1.86. For the same molecule, the figures for the “cells in G0/G1 phase” value in [4] and in test [7] were 68.4 ± 2.4% and 72.2 ± 2.3%, respectively. Besides, the “cells in G2/M phase” value in test [4] came to 16.4 ± 1.5%; in test [7] it was 12.5 ± 1.1%. Besides, the figures for the “cells in S phase” value in [4] and in [7] were 15.2 ± 1.3% and 15.3 ± 1.2%, respectively. The GSH/GSSG is 10.2 ± 1.0 nmol/mg Protein and 10.2 ± 1.0 ^a,b nmol/mg Protein in [5]; 9.5 ± 0.8 nmol/mg Protein and 9.5 ± 0.8 ^a,b nmol/mg Protein in [6]. Also, the TOS was 8.3 ± 0.6 µmol H2O2 eq/L and 8.3 ± 0.6 ^a,b µmol H2O2 eq/L in test [8]; 8.5 ± 0.7 µmol H2O2 eq/L and 8.5 ± 0.7 ^a,b µmol H2O2 eq/L in test [11]. The “A549 Selectivity Index (SI)” value in test [12] came out at 2.01.

On to `O=c1n(CN2CCN(c3ccc(Cl)cc3)CC2)c2cc(Cl)c(Cl)cc2n1CN1CCN(c2ccc(Cl)cc2)CC1` [Compound 9, 5,6-Dichloro-1,3-bis((4-(4-chlorophenyl)piperazin-1-yl)methyl)-1H-benzo[d]imidazol-2(3H)-one], for which the IC50 in [13] was 8.5 to 11.2 µM; in test [2], 11.2 ± 0.46 µM; in test [3] it was 8.5 ± 0.49 µM; in test [9], 15.2 ± 0.87 µM; in test [12] it was 9.6 ± 0.55 µM. In addition, the “MCF-7 Selectivity Index (SI)” value in test [2] amounted to 1.35. The “HeLa Selectivity Index (SI)” value in test [3] turned out to be 1.78. For the same molecule, the “A549 Selectivity Index (SI)” value in [12] is 1.58.

With `OO` [Compound H2O2, hydrogen peroxide, reference compound], the results for the LDH in [1], in test [14] and in [10] were 40.7 ± 3.0 ^a µU/mL, 41.5 ± 3.2 ^a µU/mL and 39.5 ± 2.7 ^a µU/mL, respectively. In addition, the GSH/GSSG was 7.4 ± 0.9 ^a nmol/mg Protein in test [5] and 7.1 ± 0.9 ^a nmol/mg Protein in test [6]. For the same molecule, the TOS in test [8] was 10.1 ± 0.7 ^a µmol H2O2 eq/L; in test [15] it was 10.4 ± 0.7 ^a µmol H2O2 eq/L; in test [11], 10.5 ± 0.8 ^a µmol H2O2 eq/L.
